Results as given in patent publication US20150141523A1, “COMPOUNDS FOR USE IN THE TREATMENT OF AUTOIMMUNE INFLAMMATORY DISEASE” (Venantius Limited, priority 2012, published 2015).

How the values were obtained:
[1] = test system: BalbC mice; test: Arachidonic acid mouse ear oedema model; format: in vivo; conditions: 300 μg/ear in acetone, topical; arachidonic acid alone 86%
Method: The arrachidonic mouse ear oedema model is an acute inflammation model based on activation of ecosanoid pathways. The mouse ear oedema model was performed using BalbC mice (25-35 g), of either sex. The ear was treated by the topical application (10 μl) of solvent (acetone 100%) or test drug (300 μg/ear in acetone) or Indomethacin (300 μg/ear in acetone). After one hour, oedema was induced by the topical application of arachidonic acid (10 μl at 0.4 g/ml in acetone). The width of each ear was measured, both before and 60 min after the induction of oedema, using a micrometer screw gauge. Ear oedema was calculated by comparing the ear width before and after induction of oedema and expressed as percentage normal. Animals were killed using CO2, without recovering from sedation.

[2] = test system: Jurkat cells; test: Jurkat cell viability (Acridine Orange/Ethidium Bromide); format: cell-based
Method: (§1) (A) Anti-TCR/CD28-mediated activation of Jurkat cells: Experiments involving anti-TCR/CD28-mediated activation of Jurkat T lymphocytes were carried out on 24-well cell culture plates. The plates were coated with a 1/100 dilution of rabbit anti-mouse IgG in sterile PBS (1×) and incubated overnight at 4OC. Unbound antibody was aspirated and the wells were gently rinsed with warm sterile PBS. The PBS was aspirated and the wells were coated with a 1/100 dilution of anti-TCR antibody (OKT-3) and a 1/200 dilution of anti-CD28 antibody (both antibodies pre-mixed prior to addition to the plates) in sterile PBS. The plates were then incubated for 1-2 hours at 37° C. Unbound antibody was aspirated and the wells were gently rinsed with warm PBS. The PBS was left on the plate until the Jurkat cells were ready to be added to the plate. The Jurkat cells were harvested from the T-75cm2 cell culture flasks and resuspended at a density of 0.5×10^6 cells per ml. The compounds were dissolved at a specified stock concentration (see results section) and diluted to the required concentration by adding the drug to the cell suspension. The cells were then pre-incubated with the compounds or with an equivalent volume of drug vehicle control (DMSO) for 30 minutes prior to adding the cell suspension to the antibody-coated plates. Cyclosporine A (1 μM) was used as a positive control to inhibit IL-2 production from activated T cells and was preincubated with the 6 cells as described above in parallel. The cells were then incubated on the plates with the acti-TCR/CD28 antibodies for 24 hours at 37° C. and 5% CO2 in a humidified atmosphere. After 24 hours, the cell suspension was removed from the plates and the cells were pelleted by centrifugation. The cell culture supernatant was saved and analysed for secreted IL-2 by ELISA. The cell pellet was saved and cell viability was measured using Acridine Orange/Ethidium Bromide cell viability staining solution.
The cell pellet was resuspended in 20 μl of Acridine Orange/Ethidium Bromide staining solution. A portion of this cell suspension was placed on a haemocytometer and analysed under a fluorescence microscope. […] The ratio of viable cells: non-viable cells were calculated for each activation time point/drug treatment.

[3] = test system: CD-1 mice; test: Sheep red blood cell (SRBC) delayed-type hypersensitivity mouse paw swelling; format: in vivo; conditions: 30 mg/kg; vehicle 89%
Method: The sheep red blood cells were first cleaned and counted as follows. 5 mls of the SRBC were spun down in a centrifuge at 3000 rpm for 10 minutes. The supernatant was removed and phosphate buffered saline (PBS), pH 7.4 added to the pellet. The pellet was mixed with the PBS buffer (5 mls) and spun down in a centrifuge at 3000 rpm for 10 minutes. The pellet was washed twice more with PBS buffer as described above. The pellet was then reconstituted in 5 mls of PBS buffer following the final wash. 10 μl of a 1 in 200 dilution of the sample of reconstituted sheep red blood cells (in trypan blue stain) was used to fill the counting chamber of a haemacytometer and the number of sheep red blood cells counted.
Male CD-1 mice (30-40 gms) were sensitised on day zero. The negative control group was sensitised with 100 μl PBS intraperitoneally (i.p.), while the positive control group and drug treated groups were sensitised with 1×10^7 SRBC (100 μl i.p.).
Animals were challenged 5 days later with SRBC. The SRBC were cleaned and counted as described above. Animals anaesthetised with halothane were challenged s.c. by injecting SRBC (3×10^8 cells in 20 μl) into the right hind paws and PBS (20 μl) into the left hind paws. […]
The difference in paw swelling between the saline-injected and SRBC-challenged contralateral paw of each mouse was calculated by measuring paw volume (mls) using a plethysmometer. […]

[4] = test system: IL-2 secretion from Jurkat T cells; test: IL-2 secretion from activated Jurkat T cells (ELISA); format: cell-based, human; conditions: for IL-2 [ ]pg/ml (1) / IL-2 % Control (1): experiment (1); for IL-2 % Control (1) / IL-2 % Control (2) / IL-2 % Control (3): relative to DMSO 0.1%; for IL-2 [ ]pg/ml (2) / IL-2 % Control (2): experiment (2); for IL-2 [ ]pg/ml (3) / IL-2 % Control (3): experiment (3)
Method: The T cell line Jurkat 6.1 (ATCC) was used. Cells were pre-treated for 30 min with 1 μM or 10 μM of the respective compound and then stimulated with plate-bound anti-CD3 (BD Pharmingen) and anti-CD28 (AnCell). DMSO was used as vehicle control. The immunosuppressive agent Cyclosporine A was used as a control for inhibition of IL-2 production. After 24 hs the supernatant was collected and IL-2 secretion was measured by ELISA.
Jurkat T cells were cultured in RMPI-1640 medium containing 10 % Foetal Bovine Serum, Penicillin/Streptomycin and L-Glutamine in T-75cm2 flasks at 37° C. and 5 % CO2. Cells were seeded into new culture flasks at a density of 1-3×10^5 cells per ml and maintained at a density of 0.5−1×10^6 cells per ml.
as §1
(B) PHA/PMA-mediated activation of Jurkat cells Jurkat cells were resuspended at a concentration of 0.5×10^6 cells per ml and the Pharmatrin compounds at the desired concentration or an equivalent volume of drug vehicle control (DMSO) were added to the cells and incubated for 30 minutes. Cyclosporine A (1 ∝M) was used as a positive control to inhibit IL-2 production from activated T cells and was preincubated with the cells as described above in parallel. PHA and PMA were added to the cell suspension (10 ∝g/ml and 10 ng/ml respectively) and the cells were plated onto uncoated 24-well plates. The cells were incubated on the plates for 24 hours at 37° C. and 5 % CO2 in a humidified atmosphere. After 24 hours, the cell suspension was removed from the plates and the cells were pelleted by centrifugation. The cell culture supernatant was saved and analysed for secreted IL-2 by ELISA.
The cell culture supernatants were analysed for IL-2 by ELISA (96-well plate format) using the Human IL-2 ELISA kit from R&D Systems Europe. This assay was carried out using the standard protocol outlined by the company. Samples and standards (recombinant human IL-2 provided by R&D Systems) were analysed in triplicate. […]

[5] = test system: Balb/C mice; test: 5% DSS-induced murine colitis model; format: in vivo, mouse; conditions: for inhibition of DAI in DSS-induced colitis: 5% DSS colitis (FIG. 9)

`O[C@@H]1c2ccccc2C[C@]1(Cc1ccccc1)C1=Cc2ccccc2C1` (mixture of isomers) [Compound 5, (R,S and SR)2-Benzyl-2,3-dihydro-1H,1′H-2,2′-biinden-1-ol] was tested, and the “ear swelling (increase in ear thickness)” value [1] was 62%, the cell viability [2] was “without affecting cell viability” and the SRBC paw swelling [3] was 60%. For the same compound, the “IL2 release from Jurkat cells” value [4] was “inhibited IL2 release”, the “IL-2 [ ]pg/ml (1)” value ([4]; 0.3 uM) was 32.00 pg/mL and the “IL-2 % Control (1)” value ([4]; 0.3 uM) was 156.86%. For the same compound, the “IL-2 [ ]pg/ml (2)” value ([4]; 0.3 uM) was 87.25 pg/mL, the “IL-2 % Control (2)” value ([4]; 0.3 uM) was 133.61% and the “IL-2 [ ]pg/ml (3)” value ([4]; 0.3 uM) was 164.41 pg/mL. For the same compound, the “IL-2 % Control (3)” value ([4]; 0.3 uM) was 124.97%, the “IL-2 [ ]pg/ml (1)” value ([4]; 1 uM) was 21.85 pg/mL and the “IL-2 % Control (1)” value ([4]; 1 uM) was 107.11%. For the same compound, the “IL-2 [ ]pg/ml (2)” value ([4]; 1 uM) was 64.65 pg/mL, the “IL-2 % Control (2)” value ([4]; 1 uM) was 99.00% and the “IL-2 [ ]pg/ml (3)” value ([4]; 1 uM) was 127.84 pg/mL. The “IL-2 % Control (3)” value ([4]; 1 uM) was 97.18%, the “IL-2 [ ]pg/ml (1)” value ([4]; 3 uM) was 10.90 pg/mL and the “IL-2 % Control (1)” value ([4]; 3 uM) was 53.43%. The “IL-2 [ ]pg/ml (2)” value ([4]; 3 uM) was 83.25 pg/mL, the “IL-2 % Control (2)” value ([4]; 3 uM) was 60.20% and the “IL-2 [ ]pg/ml (3)” value ([4]; 3 uM) was 97.38 pg/mL. For the same compound, the “IL-2 % Control (3)” value ([4]; 3 uM) was 74.02%, the “IL-2 [ ]pg/ml (1)” value ([4]; 10 uM) was 8.75 pg/mL and the “IL-2 % Control (1)” value ([4]; 10 uM) was 42.89%. For the same compound, the “IL-2 [ ]pg/ml (2)” value ([4]; 10 uM) was 63.80 pg/mL, the “IL-2 % Control (2)” value ([4]; 10 uM) was 97.70% and the “IL-2 [ ]pg/ml (3)” value ([4]; 10 uM) was 70.72 pg/mL. For the same compound, the “IL-2 % Control (3)” value ([4]; 10 uM) was 53.76%, the “IL-2 [ ]pg/ml (1)” value ([4]; 30 uM) was 16.25 pg/mL and the “IL-2 % Control (1)” value ([4]; 30 uM) was 79.66%. For the same compound, the “IL-2 [ ]pg/ml (2)” value ([4]; 30 uM) was 5.75 pg/mL, the “IL-2 % Control (2)” value ([4]; 30 uM) was 8.81% and the “IL-2 [ ]pg/ml (3)” value ([4]; 30 uM) was 6.69 pg/mL. For the same compound, the “IL-2 % Control (3)” value ([4]; 30 uM) was 5.08%, the “IL-2 [ ]pg/ml (1)” value ([4]; 100 uM) was -10.40 pg/mL and the “IL-2 % Control (1)” value ([4]; 100 uM) was −50.98%. For the same compound, the “IL-2 [ ]pg/ml (2)” value ([4]; 100 uM) was -13.05 pg/mL, the “IL-2 % Control (2)” value ([4]; 100 uM) was −19.98% and the “IL-2 [ ]pg/ml (3)” value ([4]; 100 uM) was 0.28 pg/mL. For the same compound, the “IL-2 % Control (3)” value ([4]; 100 uM) was 0.21% and the “inhibition of DAI in DSS-induced colitis” value [5] was “only 6 caused a significant”.
For `O[C@H]1c2ccccc2C[C@]1(Cc1ccccc1)C1=Cc2ccccc2C1` (mixture of isomers) [Compound 6, (S,S and RR)2-Benzyl-2,3-dihydro-1H,1′H-2,2′-biinden-1-ol], the “ear swelling (increase in ear thickness)” value [1] was 50%, the cell viability [2] was “without affecting cell viability” and the SRBC paw swelling [3] was 52%. The “IL2 release from Jurkat cells” value [4] was “inhibited IL2 release”, the “IL-2 [ ]pg/ml (1)” value ([4]; 0.3 uM) was 63.72 pg/mL and the “IL-2 % Control (1)” value ([4]; 0.3 uM) was 87.26%. The “IL-2 [ ]pg/ml (2)” value ([4]; 0.3 uM) was 74.50 pg/mL, the “IL-2 % Control (2)” value ([4]; 0.3 uM) was 114.09% and the “IL-2 [ ]pg/ml (3)” value ([4]; 0.3 uM) was 101.75 pg/mL. For the same compound, the “IL-2 % Control (3)” value ([4]; 0.3 uM) was 77.34%, the “IL-2 [ ]pg/ml (1)” value ([4]; 1 uM) was 58.72 pg/mL and the “IL-2 % Control (1)” value ([4]; 1 uM) was 80.41%. The “IL-2 [ ]pg/ml (2)” value ([4]; 1 uM) was 51.60 pg/mL, the “IL-2 % Control (2)” value ([4]; 1 uM) was 79.02% and the “IL-2 [ ]pg/ml (3)” value ([4]; 1 uM) was 112.44 pg/mL. For the same compound, the “IL-2 % Control (3)” value ([4]; 1 uM) was 85.47%, the “IL-2 [ ]pg/ml (1)” value ([4]; 3 uM) was 47.83 pg/mL and the “IL-2 % Control (1)” value ([4]; 3 uM) was 65.50%. The “IL-2 [ ]pg/ml (2)” value ([4]; 3 uM) was 29.15 pg/mL, the “IL-2 % Control (2)” value ([4]; 3 uM) was 44.64% and the “IL-2 [ ]pg/ml (3)” value ([4]; 3 uM) was 104.44 pg/mL. The “IL-2 % Control (3)” value ([4]; 3 uM) was 79.39%, the “IL-2 [ ]pg/ml (1)” value ([4]; 10 uM) was 27.72 pg/mL and the “IL-2 % Control (1)” value ([4]; 10 uM) was 37.96%. The “IL-2 [ ]pg/ml (2)” value ([4]; 10 uM) was 36.15 pg/mL, the “IL-2 % Control (2)” value ([4]; 10 uM) was 55.36% and the “IL-2 [ ]pg/ml (3)” value ([4]; 10 uM) was 75.19 pg/mL. For the same compound, the “IL-2 % Control (3)” value ([4]; 10 uM) was 57.15%, the “IL-2 [ ]pg/ml (1)” value ([4]; 30 uM) was 4.72 pg/mL and the “IL-2 % Control (1)” value ([4]; 30 uM) was 6.47%. The “IL-2 [ ]pg/ml (2)” value ([4]; 30 uM) was 47.60 pg/mL, the “IL-2 % Control (2)” value ([4]; 30 uM) was 72.89% and the “IL-2 [ ]pg/ml (3)” value ([4]; 30 uM) was 16.47 pg/mL. For the same compound, the “IL-2 % Control (3)” value ([4]; 30 uM) was 12.52%, the “IL-2 [ ]pg/ml (1)” value ([4]; 100 uM) was -10.11 pg/mL and the “IL-2 % Control (1)” value ([4]; 100 uM) was −13.85%. The “IL-2 [ ]pg/ml (2)” value ([4]; 100 uM) was -19.75 pg/mL, the “IL-2 % Control (2)” value ([4]; 100 uM) was −30.25% and the “IL-2 [ ]pg/ml (3)” value ([4]; 100 uM) was 1.97 pg/mL. For the same compound, the “IL-2 % Control (3)” value ([4]; 100 uM) was 1.50%, the “inhibition of DAI in DSS-induced colitis” value [5] was “significant (P<0.01) inhibition” and the “effect on DSS-induced weight loss” value ([5]; 5% DSS colitis, 30 mg/kg p.o. (FIG. 8)) was “ameliorated”.
